Source: patent publication US20190076406A1, “METHODS AND COMPOSITIONS FOR TREATING CONDITIONS ASSOCIATED WITH ANGIOGENESIS USING A VASCULAR ADHESION PROTEIN-1 (VAP-1) INHIBITOR” (MASSACHUSETTS EYE & EAR INFIRMARY, priority 2007, published 2019)

Experiments:
[1] = system: IL-1β-induced corneal angiogenesis in BALB/c mice; assay: IL-1β-induced corneal angiogenesis; assay type: in vivo, mouse; details: day 6 after pellet implantation; 0.3 mg/kg daily i.p.
Procedure: BALB/c mice were anesthetized by intrapcritoneal (i.p.) injection of pentobarbital sodium (60 mg/kg). Hydron pellets (0.3 μl) containing 30 ng mouse IL-1β (401-ML; R&D Systems) were prepared and implanted into the corneas. Pellets were positioned 1 mm from the corneal limbus. Implanted eyes were treated with Bacitracin ophthalmic ointment (E. Fougera & Co.) to prevent infection.
To block VAP-1, mice received daily i.p. injections of a specific VAP-1 inhibitor, Compound II (R-tech Ueno Ltd., Tokyo, Japan) as described above. A daily dose of 0.3 mg/kg was administered at day 0 and continued until the sixth day after implantation. Two, four and six days after implantation, digital images of the corneal vessels were obtained and recorded using OpenLab software version 2.2.5 (Improvision Inc.) with standardized illumination and contrast and were saved onto disks. The quantitative analysis of new vessel growth in the mouse corneas was performed using Scion Image software (version 4.0.2; Scion Corp.).

[2] = molecular target: T1, MAO-B (Homo sapiens, UniProt P27338); assay: IC50 against MAO-B; assay type: biochemical
T1 sequence (P27338 1-520): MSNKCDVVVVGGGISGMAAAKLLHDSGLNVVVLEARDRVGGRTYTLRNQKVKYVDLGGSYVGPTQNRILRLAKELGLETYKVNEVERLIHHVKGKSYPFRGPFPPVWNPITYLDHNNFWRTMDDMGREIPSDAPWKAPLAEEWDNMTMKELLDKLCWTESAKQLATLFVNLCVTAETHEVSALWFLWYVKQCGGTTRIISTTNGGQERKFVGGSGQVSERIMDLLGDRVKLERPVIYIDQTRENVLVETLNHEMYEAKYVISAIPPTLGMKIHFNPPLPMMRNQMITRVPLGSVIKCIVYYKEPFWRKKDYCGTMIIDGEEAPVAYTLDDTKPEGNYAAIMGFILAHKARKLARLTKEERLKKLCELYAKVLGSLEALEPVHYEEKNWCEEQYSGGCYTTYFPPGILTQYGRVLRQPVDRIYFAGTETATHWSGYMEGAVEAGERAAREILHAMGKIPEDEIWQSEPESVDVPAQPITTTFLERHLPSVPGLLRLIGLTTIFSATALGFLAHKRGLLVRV

[3] = molecular target: T2, rat semicarbazide-sensitive amine oxidase (SSAO) (Rattus norvegicus, UniProt O08590); assay: IC50 against rat SSAO; assay type: biochemical
T2 sequence (O08590 1-763): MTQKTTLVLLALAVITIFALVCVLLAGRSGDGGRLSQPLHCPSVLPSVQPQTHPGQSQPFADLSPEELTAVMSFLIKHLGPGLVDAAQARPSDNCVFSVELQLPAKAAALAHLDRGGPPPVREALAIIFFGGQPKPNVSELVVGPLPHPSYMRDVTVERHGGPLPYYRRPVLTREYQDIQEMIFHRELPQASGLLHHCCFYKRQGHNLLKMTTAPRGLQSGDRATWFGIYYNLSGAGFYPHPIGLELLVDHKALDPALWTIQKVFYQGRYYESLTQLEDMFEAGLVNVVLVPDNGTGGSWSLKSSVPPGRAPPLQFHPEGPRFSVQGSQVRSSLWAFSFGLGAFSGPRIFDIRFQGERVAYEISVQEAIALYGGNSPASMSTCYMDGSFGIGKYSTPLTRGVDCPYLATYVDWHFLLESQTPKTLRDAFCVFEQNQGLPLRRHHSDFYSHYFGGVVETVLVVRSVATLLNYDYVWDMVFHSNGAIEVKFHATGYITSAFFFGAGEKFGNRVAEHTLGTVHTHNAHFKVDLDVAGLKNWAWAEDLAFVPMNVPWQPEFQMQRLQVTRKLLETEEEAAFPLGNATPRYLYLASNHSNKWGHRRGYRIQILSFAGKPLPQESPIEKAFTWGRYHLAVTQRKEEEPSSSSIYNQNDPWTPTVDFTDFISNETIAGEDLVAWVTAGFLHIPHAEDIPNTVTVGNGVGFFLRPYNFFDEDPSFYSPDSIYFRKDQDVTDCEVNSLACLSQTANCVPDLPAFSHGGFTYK

[4] = system: MCP-1; assay: ELISA of MCP-1 in RPE-choroid complex after laser injury; assay type: in vivo, rat; details: 3 days after laser injury; 0.3 mg/kg daily i.p.; mean±SEM
Procedure: Brown-Norway rats were anesthetized with 0.2-0.3 ml of a 50:50 mixture of 100 mg/ml Ketamine and 20 mg/ml Xylazine. Pupils were dilated with 5.0% Phenylephrine and 0.8% Tropicamide. CNV was induced with a 532 nm laser (Oculight GLx, Iridex, Mountain View, Calif.). Six laser spots (150 mW, 100 μm, 100 msec) were placed in each eye using a slit-lamp delivery system and a cover glass as a contact lens. Production of a bubble at the time of laser confirmed the rupture of the Bruch's membrane.
To block VAP-1, a specific VAP-1 inhibitor, Compound II described above, was used (R-tech Ueno, Ltd., Tokyo, Japan). […]
The RPE-choroid complex was carefully isolated from eyes 3 days after photocoagulation and placed in 300 μl of lysis buffer supplemented with protease inhibitors and sonicated. The lysate was centrifuged at 15,000 rpm for 15 minutes at 4° C. and the levels of TNF-α, monocyte chemotactic protein (MCP)-1, and intercellular adhesion molecule (ICAM)-1 were determined with rat TNF-α (BD bioscience), MCP-1 (BD bioscience) and ICAM-1 (R&D Systems, Minneapolis, Minn.) enzyme-linked immunosorbent assay (ELISA) kits according to the manufacturers' protocols. Total protein concentration was determined using a Bio-Rad Protein Assay Kit (Bio-Rad Laboratories Hercules, Calif.) and dilutions of bovine serum albumin (Bio-Rad Laboratories) as standards.

CC(=O)Nc1nc(CCc2ccc(NC(=N)NN)cc2)c(Cc2ccc(S(C)(=O)=O)cc2)s1 [Compound II]
neovascular area relative to control mice (IL-1β alone or IL-1β+vehicle) [1]: about half | IC50 [2]: > 10000 nM | IC50 [3]: 8 nM | MCP-1 protein level in RPE-choroid complex [4]: 662 ± 52 pg/mg
